Results: paper PMC13266984 (Journal of medicinal chemistry, 2026)

Assays:
[1] = target: T1, OE19 (3A1) (Homo sapiens, UniProt P30838); experiment: Cellular ALDEFLUOR assay in OE19 cells (preferential ALDH3A1 expression)
T1 sequence (P30838 1-453): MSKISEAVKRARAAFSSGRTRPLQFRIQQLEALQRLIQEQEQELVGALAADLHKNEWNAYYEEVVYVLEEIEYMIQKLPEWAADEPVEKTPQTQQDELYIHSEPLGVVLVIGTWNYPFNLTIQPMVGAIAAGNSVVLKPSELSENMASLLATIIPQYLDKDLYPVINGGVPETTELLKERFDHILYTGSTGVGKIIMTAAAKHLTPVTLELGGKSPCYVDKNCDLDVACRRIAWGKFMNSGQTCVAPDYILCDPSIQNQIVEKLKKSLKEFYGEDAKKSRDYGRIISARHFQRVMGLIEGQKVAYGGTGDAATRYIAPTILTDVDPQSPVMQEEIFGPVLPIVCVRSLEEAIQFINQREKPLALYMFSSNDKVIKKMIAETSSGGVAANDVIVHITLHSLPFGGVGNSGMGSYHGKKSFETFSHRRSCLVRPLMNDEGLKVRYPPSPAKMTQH

[2] = target: T2, Human ALDH3A1 (Homo sapiens, UniProt P30838); experiment: ALDH3A1 biochemical assay (benzaldehyde/NADP+, diaphorase-resazurin readout, 1,536-well)
T2 sequence (P30838 1-453): T1 sequence (P30838 1-453)

[3] = Table S4, biochemical curve class
[4] = Table S5, biochemical curve class

| SMILES | AC50 [1] [nM] | Cell_Efficacy ([1]; Table S4, OE19 cells) | Cell_CC-v2 ([1]; Table S4, cellular curve class) | AC50 [2] [nM] | Efficacy ([2]; Table S4, biochemical) | CC-v2 [2, 3] | Cell_Efficacy ([1]; Table S5, OE19 cells) | Cell_CC-v2 ([1]; Table S5, cellular curve class) | Efficacy ([2]; Table S5, biochemical) | CC-v2 [2, 4] |
| --- | --- | --- | --- | --- | --- | --- | --- | --- | --- | --- |
| Cc1cccc(CNC(=O)c2csc(N3CCN(c4ccccc4C)CC3)n2)c1 [NCGC01211138-01] | 7850 | -88.54 | -1.1 | 1450 | -88.86 | -1.1 |  |  |  |  |
| O=C(NCc1ccc2ccccc2c1)c1csc(N2CCN(c3cccc(C(F)(F)F)c3)CC2)n1 [Compound 17] | 40.7 |  |  | 11.9 |  |  | -93.35 | -1.1 | -92.05 | -1.1 |
| O=C(NCc1ccc(S(F)(F)(F)(F)F)cc1)c1csc(N2CCN(c3cccc(C(F)(F)F)c3)CC2)n1 [NCGC01407933-01] | 2720 |  |  | 28.2 |  |  | -85.12 | -1.1 | -87.34 | -1.1 |
| Cc1cccc(CNC(=O)c2csc(N3CCN(c4ccc(C(F)(F)F)cn4)CC3)n2)c1 [NCGC01210237-01] | 3130 | -106.55 | -1.3 | 730 | -94.33 | -1.1 |  |  |  |  |
| N#Cc1cccc(CNC(=O)c2csc(N3CCN(c4cccc(C(F)(F)F)c4)CC3)n2)c1 [NCGC01397393-01] | 965 |  |  | 2.2 |  |  | -104.84 | -2.2 | -100.26 | -1.1 |
| O=C(NCc1ccc(C(F)F)c(F)c1)c1csc(N2CCN(c3cccc(C(F)(F)F)c3)CC2)n1 [NCGC01407984-01] | 242 |  |  | 14.1 |  |  | -105.03 | -2.2 | -99.03 | -1.1 |
| O=C(NCc1ccc(F)c(F)c1)c1csc(N2CCN(c3cccc(C(F)(F)F)c3)CC2)n1 [NCGC01407951-01] | 4310 |  |  | 35.5 |  |  | -93.55 | -1.3 | -100.75 | -1.1 |
| O=C(NCc1ccc(Br)c(C(F)(F)F)c1)c1csc(N2CCN(c3cccc(C(F)(F)F)c3)CC2)n1 [NCGC01396480-01] | 1360 |  |  | 11.2 |  |  | -77.80 | -1.4 | -96.06 | -1.1 |
| COc1ccc(Cl)c(N2CCN(c3nc(C(=O)NCc4cccc(C)c4)cs3)CC2)c1 [NCGC01211381-01] | 31300 | -102.69 | -2.3 | 580 | -89.43 | -1.1 |  |  |  |  |
| Cc1cccc(CNC(=O)c2csc(N3CCN(c4ncccc4C(F)(F)F)CC3)n2)c1 [NCGC01210654-01] | 35100 | -81.56 | -2.2 | 1020 | -95.69 | -1.1 |  |  |  |  |
| C[S+](=O)([O-])c1ccc(CNC(=O)c2csc(N3CCN(c4cccc(C(F)(F)F)c4)CC3)n2)cc1 [NCGC01407818-01] | 200 |  |  | 447 |  |  | -88.67 | -1.1 | -62.88 | -1.2 |
| Cc1cccc(CNC(=O)c2csc(N3CCN(c4ccc([S+](=O)([O-])F)cc4)CC3)n2)c1 [NCGC01211171-01] | 1970 | -83.98 | -1.1 | 1150 | -53.27 | -1.2 |  |  |  |  |
| Cc1cccc(CNC(=O)c2csc(N3CCN(Cc4cccc(C)c4)CC3)n2)c1 [NCGC01211187-01] | 4420 | -121.01 | -2.1 | 910 | -93.83 | -1.1 |  |  |  |  |
| Cc1cc(CNC(=O)c2csc(N3CCN(c4cccc(C(F)(F)F)c4)CC3)n2)ccc1-c1ccccc1 [NCGC01407768-01] | 15800 |  |  | 316 |  |  | -93.67 | -1.3 | -32.49 | -1.2 |
| Cc1cccc(CNC(=O)c2csc(N3CCN(c4cccc(C(F)(F)F)n4)CC3)n2)c1 [NCGC01210535-01] | 7850 | -90.86 | -1.1 | 580 | -96.11 | -1.1 |  |  |  |  |
| Cc1cccc(CNC(=O)c2csc(N3CCN(c4ccc(N5CCOCC5)cc4)CC3)n2)c1 [NCGC01211186-01] | 3130 | -98.82 | -1.1 | 4080 | -37.13 | -1.2 |  |  |  |  |

| SMILES | AC50 [1] [nM] | Cell_Efficacy ([1]; Table S4, OE19 cells) | Cell_CC-v2 ([1]; Table S4, cellular curve class) | AC50 [2] [nM] | Efficacy ([2]; Table S4, biochemical) | CC-v2 [2, 3] | Cell_Efficacy ([1]; Table S5, OE19 cells) | Cell_CC-v2 ([1]; Table S5, cellular curve class) | Efficacy ([2]; Table S5, biochemical) | CC-v2 [2, 4] |
| --- | --- | --- | --- | --- | --- | --- | --- | --- | --- | --- |
| Cc1cccc(CNC(=O)c2csc(N3CCN(c4cccc([S+](=O)([O-])C(F)(F)F)c4)CC3)n2)c1 [NCGC01210726-01] | 15700 | -81.37 | -1.2 | 18200 | -54.32 | -1.2 |  |  |  |  |
| O=C(NCc1ccc2c(c1)C(=O)NCC2)c1csc(N2CCN(c3cccc(C(F)(F)F)c3)CC2)n1 [NCGC01397286-01] | 398 |  |  | 447 |  |  | -10.99 | 5 | -60.58 | -1.2 |
| O=C(NCc1ccc(N2CCNC2=O)cc1)c1csc(N2CCN(c3cccc(C(F)(F)F)c3)CC2)n1 [NCGC01407779-01] | 2240 |  |  | 794 |  |  | -130.58 | -1.1 | -73.90 | -1.2 |
| O=C(NCc1cccc(N2CCC2=O)c1)c1csc(N2CCN(c3cccc(C(F)(F)F)c3)CC2)n1 [Compound 20] | 10.8 |  |  | 63.1 |  |  | -81.94 | -1.2 | -96.26 | -1.1 |
| O=C(NCc1ccc(C(F)(F)F)c(Cl)c1)c1csc(N2CCN(c3cccc(C(F)(F)F)c3)CC2)n1 [NCGC01407914-01] | 609 |  |  | 28.2 |  |  | -99.51 | -1.3 | -95.28 | -1.1 |
| O=C(NCc1cc(F)cc(Br)c1)c1csc(N2CCN(c3cccc(C(F)(F)F)c3)CC2)n1 [NCGC01397297-01] | 2160 |  |  | 3.6 |  |  | -85.43 | -1.1 | -107.41 | -1.1 |
| Cc1cccc(COc2ccc(CNC(=O)c3csc(N4CCN(c5cccc(C(F)(F)F)c5)CC4)n3)cc2)c1 [NCGC01407816-01] | 20000 |  |  | 200 |  |  | -99.22 | -1.1 | -21.51 | 5 |
| Cc1cccc(CNC(=O)c2csc(N3CCN(c4ccc(OCCF)cc4)CC3)n2)c1 [NCGC01211173-01] | 1400 | -87.33 | -1.1 | 3240 | -45.43 | -1.2 |  |  |  |  |
| COc1ccccc1N1CCN(c2nc(C(=O)NCc3cccc(C)c3)cs2)CC1 [NCGC01210996-01] | 50 | -98.32 | -1.3 | 910 | -91.28 | -1.1 |  |  |  |  |
| O=C(NCCc1cccc(OCCCc2ccccc2)c1)c1csc(N2CCN(c3cccc(C(F)(F)F)c3)CC2)n1 [NCGC01407986-01] | 501 |  |  | 562 |  |  | -92.16 | -1.1 | -31.39 | -1.2 |
| Cc1cccc(CNC(=O)c2csc(N3CCN(c4ccc(Cl)c(Cl)c4)CC3)n2)c1 [NCGC01211120-01] | 790 | -88.59 | -1.1 | 510 | -83.25 | -1.1 |  |  |  |  |
| O=C(NCc1ccc(Cl)c(F)c1)c1csc(N2CCN(c3cccc(C(F)(F)F)c3)CC2)n1 [NCGC01407936-01] | 965 |  |  | 12.6 |  |  | -88.16 | -1.1 | -100.15 | -1.1 |
| O=C(NCc1c(Cl)cccc1Br)c1csc(N2CCN(c3cccc(C(F)(F)F)c3)CC2)n1 [NCGC01407972-01] |  |  |  | 50.1 |  |  | 0.00 | 4 | -90.79 | -1.1 |
| COc1ccc(N2CCN(c3nc(C(=O)NCc4cccc(C)c4)cs3)CC2)cc1O [NCGC01211394-01] | 15700 | -88.85 | -2.3 | 1150 | -71.12 | -1.2 |  |  |  |  |
| Cc1cccc(CNC(=O)c2csc(N3CCN(c4cccc(F)c4)CC3)n2)c1 [NCGC01219288-01] | 990 | -85.92 | -1.1 | 1020 | -96.39 | -1.1 |  |  |  |  |
| Cc1cccc(CNC(=O)c2csc(N3CCN(c4ccc(F)cc4)CC3)n2)c1 [NCGC01219292-01] | 880 | -90.33 | -1.3 | 1150 | -94.91 | -1.1 |  |  |  |  |
